Assay results published in PubChem BioAssay (NCI).
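Grown in 96-well plates, cells were treated for 48 hours with each compound at five concentrations. Insufficient inhibition: endpoint recorded as highest concentration tested. Abbreviation: GI50, concentration required for 50% inhibition of growth. The concentration for full growth arrest is given as TGI.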

Key:
Assay in all cases: NCI tumour cell line growth inhibition, 48 h
[1] = test system: DU-145 prostate
[2] = test system: HCT-15 colon
[3] = test system: K-562 leukemia
[4] = test system: M14 melanoma
[5] = test system: MALME-3M melanoma
[6] = test system: NCI-H460 lung
[7] = test system: NCI-H522 lung
[8] = test system: SF-295 CNS
[9] = test system: UO-31 renal
[10] = test system: NCI/ADR-RES ovarian

## CCCCCCCCCCCCCC(=O)CBr
[1]
  TGI: 33.7 µM
[2]
  TGI: 28.3 µM
[3]
  TGI: 17.4 µM
[4]
  TGI: 26.6 µM
[5]
  TGI: 23.6 µM
[6]
  TGI: 35.3 µM
[7]
  TGI: 3.85 µM
[8]
  TGI: 29.3 µM
[9]
  TGI: 24 µM

## Cc1cc(=O)oc2cc3c(cc12)Oc1ccccc1O3
[2]
  TGI: > 100 µM
[3]
  TGI: > 10 µM
[4]
  TGI: > 100 µM
[5]
  TGI: > 100 µM
[6]
  TGI: > 100 µM
[8]
  TGI: > 100 µM
[9]
  TGI: > 100 µM

## COc1ccc2c(c1)OC(N(C(C)=O)C(C)=O)=C(C#N)C2c1ccc(F)cc1 (stereo not given)
[1]
  GI50: 2.85 µM
  TGI: > 100 µM
[2]
  GI50: 0.683 µM
  TGI: > 100 µM
[4]
  GI50: 0.482 µM
  TGI: > 100 µM
[5]
  GI50: 21.6 µM
  TGI: > 100 µM
[6]
  GI50: 1.88 µM
  TGI: 45.5 µM
[7]
  GI50: 0.619 µM
  TGI: 18.3 µM
[10]
  GI50: 0.953 µM
  TGI: > 100 µM
[8]
  GI50: 2.83 µM
  TGI: > 100 µM
[9]
  GI50: 4.19 µM
  TGI: > 100 µM

## COc1ccc2oc3cccc(NCCN(C)C)c3c(=O)c2c1
[2]
  TGI: 27.1 µM
[3]
  TGI: 25.3 µM
[4]
  TGI: 29.4 µM
[5]
  TGI: 29.2 µM
[6]
  TGI: 21.2 µM
[8]
  TGI: 29.9 µM
[9]
  TGI: 21.4 µM

## COc1ccc(-c2cncn2-c2ccc(OC)cc2)cc1
[1]
  GI50: 14.9 µM
  TGI: 32.5 µM
[2]
  GI50: 19.6 µM
  TGI: > 100 µM
[3]
  GI50: 10.8 µM
  TGI: 36.9 µM
[4]
  GI50: 20.8 µM
  TGI: 46.9 µM
[6]
  GI50: 15.6 µM
  TGI: 48.4 µM
[7]
  GI50: 13.6 µM
  TGI: 38.3 µM
[10]
  GI50: 19.3 µM
  TGI: 42.9 µM
[8]
  GI50: 12.7 µM
  TGI: 47 µM
[9]
  GI50: 17.2 µM
  TGI: 53.6 µM

## O=C(CSC(=S)N1CCOCC1)Nc1nc2c(s1)CCCC2
[2]
  TGI: > 100 µM
[4]
  TGI: > 100 µM
[5]
  TGI: > 100 µM
[6]
  TGI: > 100 µM
[7]
  TGI: 70.2 µM
[8]
  TGI: > 100 µM
[9]
  TGI: > 100 µM

## COc1ccc2c3c(c(=O)n(C)c2c1OC)C=CC(C)(C)O3
[1]
  TGI: > 100 µM
[2]
  TGI: 27.9 µM
[4]
  TGI: > 100 µM
[5]
  TGI: > 100 µM
[7]
  TGI: > 100 µM
[10]
  TGI: 64.3 µM
[8]
  TGI: > 100 µM
[9]
  TGI: 63.3 µM

## Fc1ccc2[nH]c3c(NCCCN4CCOCC4)ncnc3c2c1
[1]
  GI50: 88 µM
  TGI: > 100 µM
[2]
  GI50: 32.1 µM
  TGI: > 100 µM
[3]
  GI50: 26.2 µM
  TGI: > 100 µM
[4]
  GI50: 36 µM
  TGI: > 100 µM
[5]
  GI50: 27.4 µM
  TGI: 89.1 µM
[6]
  GI50: 38.5 µM
  TGI: > 100 µM
[10]
  GI50: > 100 µM
  TGI: > 100 µM
[8]
  GI50: 61.2 µM
  TGI: > 100 µM
[9]
  GI50: 33 µM
  TGI: > 100 µM

## O=C1CC[C@@H](S(=O)(=O)c2ccccc2)[C@@H](/C=C/c2ccccc2)O1
[2]
  TGI: > 100 µM
[3]
  TGI: > 100 µM
[4]
  TGI: > 100 µM
[5]
  TGI: > 100 µM
[6]
  TGI: > 100 µM
[7]
  TGI: > 100 µM
[8]
  TGI: > 100 µM
[9]
  TGI: > 100 µM

## COc1cc(/C=C/C(=O)c2sc(Nc3ccccc3)nc2C)ccc1O
[2]
  TGI: > 100 µM
[3]
  TGI: > 100 µM
[5]
  TGI: > 100 µM
[6]
  TGI: > 100 µM
[7]
  TGI: > 100 µM
[8]
  TGI: > 100 µM
[9]
  TGI: > 100 µM

## O=c1cc(-c2ccccc2)c2cc3c(=O)ccoc3cc2o1
[2]
  TGI: > 100 µM
[3]
  TGI: > 100 µM
[4]
  TGI: > 100 µM
[5]
  TGI: > 100 µM
[6]
  TGI: > 100 µM
[8]
  TGI: > 100 µM
[9]
  TGI: > 100 µM

## CC(=O)c1cc([N+](=O)[O-])ccc1OCC(=O)O
[2]
  TGI: > 100 µM
[3]
  TGI: > 100 µM
[4]
  TGI: > 100 µM
[5]
  TGI: > 100 µM
[6]
  TGI: > 100 µM
[7]
  TGI: > 100 µM
[8]
  TGI: > 100 µM
[9]
  TGI: > 100 µM

## N#C/C(=C\c1cccc(O)c1)C(N)=O
[2]
  TGI: > 100 µM
[3]
  TGI: > 100 µM
[4]
  TGI: > 100 µM
[5]
  TGI: > 100 µM
[6]
  TGI: > 100 µM
[7]
  TGI: > 100 µM
[8]
  TGI: > 100 µM
[9]
  TGI: > 100 µM

## COc1cccc(C2c3cc4c(cc3OC(O)(CO)C2C(=O)O)OCO4)c1 (stereo not given) (tested in a mixture with another compound)
[2]
  TGI: > 100 µM
[3]
  TGI: > 100 µM
[4]
  TGI: > 100 µM
[5]
  TGI: > 100 µM
[6]
  TGI: 49 µM
[8]
  TGI: > 100 µM
[9]
  TGI: > 100 µM

## CC1S(=O)(=O)OCCOS1(=O)=O
[2]
  TGI: > 100 µM
[3]
  TGI: > 100 µM
[4]
  TGI: > 100 µM
[5]
  TGI: > 100 µM
[6]
  TGI: > 100 µM
[7]
  TGI: > 100 µM
[8]
  TGI: > 100 µM
[9]
  TGI: > 100 µM

## N[C@H](C(=O)O)[C@H](Cl)CC(=O)O
[2]
  TGI: > 100 µM
[3]
  TGI: > 100 µM
[4]
  TGI: > 100 µM
[5]
  TGI: > 100 µM
[6]
  TGI: > 100 µM
[7]
  TGI: > 100 µM
[8]
  TGI: > 100 µM
[9]
  TGI: > 100 µM

## O=C(CN1CCN(c2ccccc2)CC1)N1CCc2c([nH]c3ccccc23)C1c1cccnc1 (stereo not given)
[2]
  TGI: > 100 µM
[3]
  TGI: > 100 µM
[4]
  TGI: > 100 µM
[5]
  TGI: > 100 µM
[6]
  TGI: > 100 µM
[7]
  TGI: > 85.7 µM
[8]
  TGI: 84.8 µM
[9]
  TGI: > 100 µM

## CCOC(=O)NN1C(=O)C(=P(c2ccccc2)(c2ccccc2)c2ccccc2)C(C(=O)OCC)=C1C
[2]
  TGI: > 100 µM
[3]
  TGI: > 100 µM
[4]
  TGI: > 100 µM
[5]
  TGI: > 100 µM
[6]
  TGI: > 100 µM
[7]
  TGI: > 100 µM
[8]
  TGI: > 100 µM
[9]
  TGI: > 100 µM

## CC(=O)n1c2ccccc2c2nc3nc(Oc4ccc(C)cc4)c4ccccc4c3cc21
[2]
  TGI: > 100 µM
[3]
  TGI: > 100 µM
[4]
  TGI: > 100 µM
[5]
  TGI: > 100 µM
[6]
  TGI: > 100 µM
[7]
  TGI: > 100 µM
[8]
  TGI: > 100 µM
[9]
  TGI: > 100 µM

## C=C(C)C(=O)O[C@H]1[C@H]2[C@H](OC(=O)[C@H]2C)[C@H](O)[C@@H](C)[C@@H]2C=CC(=O)[C@]21C
[1]
  TGI: 12.9 µM
[2]
  TGI: 6.38 µM
[4]
  TGI: 38.5 µM
[5]
  TGI: 5.54 µM
[6]
  TGI: 3.72 µM
[7]
  TGI: 2.68 µM
[10]
  TGI: 9.61 µM
[8]
  TGI: 18.7 µM
[9]
  TGI: 15.4 µM

## O=C(O)c1cc(=O)c2[nH]c3ccccc3c2s1
[2]
  TGI: > 100 µM
[3]
  TGI: > 100 µM
[4]
  TGI: > 100 µM
[5]
  TGI: > 100 µM
[6]
  TGI: > 100 µM
[7]
  TGI: > 100 µM
[8]
  TGI: > 100 µM
[9]
  TGI: > 100 µM

## CCCCCCCCCCCCCCCCCCCCCC(=O)Nc1ccn(C2OC(CO)C(O)C2O)c(=O)n1 (stereo not given)
[2]
  TGI: > 100 µM
[3]
  TGI: > 100 µM
[4]
  TGI: 32.6 µM
[5]
  TGI: > 100 µM
[6]
  TGI: > 100 µM
[7]
  TGI: > 100 µM
[8]
  TGI: > 100 µM
[9]
  TGI: > 100 µM

## Cc1ccc(NC(=O)/C(=N\Nc2ccc([N+](=O)[O-])cc2[N+](=O)[O-])C2C(=O)NC(=O)NC2=O)cc1
[2]
  TGI: > 100 µM
[3]
  TGI: > 100 µM
[4]
  TGI: > 100 µM
[5]
  TGI: > 100 µM
[6]
  TGI: > 100 µM
[7]
  TGI: > 100 µM
[8]
  TGI: > 100 µM
[9]
  TGI: > 100 µM
